Laboratory results: PubChem BioAssay AID624404 (Broad Institute, 2012)
Records with an inconclusive call do not appear.

Tested on: D54 LucT luciferase reporter counterscreen, luminescence, 24 h
Assay: luciferase activators in glycosylation-insensitive reporter cells, dose response, counter-screen for N-linked glycosylation inhibitor project, D54 LucT cells, luminescence, cherry pick (AID 624404)

Row | Compound | AC35 [µM]
1 | C[C@H](CO)N1C[C@H](C)[C@@H](CN(C)S(=O)(=O)c2cccs2)Oc2c(NC(=O)Cc3ccccc3)cccc2C1=O | 2.96
2 | O=C(N/N=C/c1ccccc1)c1sccc1OCc1ccc(F)cc1 | 3.06
3 | CC(C)c1ccc(/C=N/NC(=O)c2ccccc2Cl)cc1 | 0.247
4 | O=C(CSc1nnc(-c2cc3ccccc3cc2O)n1Cc1ccco1)N1CCc2ccccc2C1 | 1.28
5 | CCN1C(=O)Nc2cccc3cccc1c23 | 3.14
6 | CC(C)(C)S(=O)(=O)N1C[C@@H]2CC/C=C\C/C(c3ccccc3)=C\2[C@H]1CCO | 0.645
7 | O=c1cc(-c2ccccc2)[nH]c2cc(F)ccc12 | 2.38
8 | O=C(Nc1ccccc1-c1ccccc1)C1CCCC1 | 1.22
9 | Cc1ccc(C(=O)NC(=C(Cl)Cl)S(=O)(=O)c2ccc(Cl)cc2)cc1 | 12.7
10 | COc1ccc(N/C=C/C(=O)c2cc(OC)c(OC)c(OC)c2)cc1 | 0.263
11 | COc1ccc(/C=N/NC(=O)c2ccccc2OCc2ccccc2)c(OC)c1 | 1.6
12 | CCCOc1ccc2ccccc2c1/C=N/n1c(C)nnc1-n1nc(C)cc1C | 0.0184
13 | C(=N\Nc1nc2ccccc2[nH]1)/c1c[nH]c2ccccc12 | 0.718
14 | COc1ccc2c(c1)[C@H]1[C@H](CO2)[C@H](c2ccccc2)[C@]2(C)C(=O)Nc3cc(C)ccc3C(=O)N12 | 0.0668
15 | CCOC(=O)c1[nH]c(C)c(C(=O)c2ccc(C)cc2)c1C | 1.1
16 | Cc1ccc(C(=O)NCc2nnc(SCC(=O)NC(C)c3ccccc3)n2C)cc1 (stereo not given) | 2.43
17 | CCc1nn2c(NCCCO)cc(C)nc2c1-c1ccc(F)cc1 | 0.184
18 | CSc1ccc(/C=N/NC(=O)c2ccccc2Cl)cc1 | 1.23
19 | CCOC(=O)N1CCC(NC(=O)c2ccc3c(c2)N=C(C)c2c(C)ccc(C)c2S3)CC1 | 0.94
20 | O=C(NCc1cccs1)C1Cc2c(-c3ccc(Cl)cc3)ccnc2O1 (stereo not given) | 0.166
21 | Nc1nc(-c2ccccn2)nc(N)c1Cc1ccc(Cl)cc1Cl | 1.48
22 | CC(=O)NC(c1cccc(F)c1)c1nc(-c2ccccc2C)cs1 (stereo not given) | 0.263
23 | COc1ccccc1-c1c(C#N)c(N)nc2c1CCc1ccccc1-2 | 1.11
24 | Cc1cccc(CCNC(=O)CCCOc2cc(=O)n(C)c3ccccc23)c1 | 0.321
25 | CC1(C(=O)NCc2ccccc2)Cc2c(-c3cccc(C(N)=O)c3)ccnc2O1 (stereo not given) | 0.651
26 | Cc1ccc2nc(/C(C#N)=C/c3cn[nH]c3-c3ccc(F)cc3)[nH]c2c1 | 2.18
27 | Cn1c(=O)cc2c3c(c(N4CCCCC4)ccc31)C(=O)c1ccccc1-2 | 1.35

Row | Compound | AC35 [µM]
28 | COC(=O)c1c(NC(=O)CN2C(=O)NC3(CCC(C)CC3)C2=O)sc2c1CCC2 (stereo not given) | 0.592
29 | O=C(CN1CCC(O)(c2cccc(F)c2)CC1)NCCc1c[nH]c2ccccc12 | 0.972
30 | Cc1ccc(S(=O)(=O)[N-]c2nc3ccccc3nc2-n2cc[n+](Cc3ccccc3)c2)cc1 | 0.0339
31 | COc1ccc2c(c1)[C@H]1[C@H](CO2)[C@H](c2ccccc2)[C@]2(C)C(=O)Nc3ccc(Br)cc3C(=O)N12 | 0.233
32 | O=C(N/N=C/c1ccc(F)cc1)c1sccc1OCc1ccc(F)cc1 | 1.58
33 | CCn1c2ccccc2c2cc(/C=N/NC(=O)c3ccc(O)cc3)ccc21 | 4.49
34 | Cc1ccc2nc(SCc3nnc(-c4ccccc4[N+](=O)[O-])o3)c(C#N)cc2c1 | 1.3
35 | CCC(Cc1ccccc1)NC(=O)c1ccc2nc(N3CCOCC3)sc2c1 (stereo not given) | 0.48
36 | CC(CCc1ccco1)NC(=O)CCc1nnc2ccc(NCc3ccc(Cl)cc3)nn12 (stereo not given) | 1.58
37 | COc1ccc2c(c1)[C@H]1[C@H](CO2)[C@H](c2ccccc2)[C@]2(C)C(=O)Nc3ccc(F)cc3C(=O)N12 | 0.582
38 | Cc1ccc2c(c1)[C@H]1[C@H](CO2)[C@H](c2ccccc2)[C@]2(C)C(=O)Nc3ccc(Br)cc3C(=O)N12 | 1.76
39 | O=C1Cc2c(-c3ccccc3)cc(-c3cccc(Cl)c3)nc2-c2ccccc2N1 | 5.37
40 | CCOc1ccc(N2C(=O)Nc3ccccc3C2(O)C(=O)N2CCN(c3ccccn3)CC2)cc1 (stereo not given) | 1.2
41 | Cc1nc2ncccn2c1-c1csc(Nc2ccc(N(C)C)cc2)n1 | 0.0289
42 | CC[C@]12c3[nH]c4cc(CCC(=O)N(C)C)ccc4c3CCN1C(=O)[C@@H](CC(=O)NC/C=C(\C)CCC=C(C)C)C[C@@H]2C(=O)N1CCN(C(=O)c2ccco2)CC1 | 0.267
43 | O=C(N/N=C\c1cn(-c2ccccc2)nc1-c1ccccc1)c1ccc(Br)o1 | 0.957
44 | Cc1ccc(-c2nc(NCCCN(C)C)c3ccccc3n2)cc1 | 3.89
45 | CCCCNC(=O)c1cc(-c2ccc(F)cc2)on1 | 0.806
46 | Cc1ccc(C(=O)N/C(=C/c2cccs2)C(=O)NCCc2c[nH]c3ccccc23)cc1 | 1.17
47 | NS(=O)(=O)c1ccc(NC(=O)c2cccc3cc4ccccc4nc23)cc1 | 6.58
48 | Cc1ccc(NC(=O)c2ncn(CCCNCc3ccccc3)n2)cc1C | 0.994
49 | O=C(c1ncn(Cc2ccccc2)c1C(=O)N1CCN(c2ccccc2)CC1)N1CCN(c2ccccc2)CC1 | 1.23
50 | CC(Nc1nc(-c2cccnc2)nc2ccccc12)c1ccc(F)cc1 (stereo not given) | 3.45
51 | Cc1ccnc(NC(=O)C(Cc2ccccc2)NC(=O)c2ccccc2)c1 (stereo not given) | 0.335
52 | COc1cc(OC)cc(C(=O)NCC(=O)Nc2ccc(-c3ccccc3)cc2)c1 | 0.501
53 | CNC(=O)c1cccn(Cc2ccc(C(F)(F)F)cc2)c1=O | 1.24
54 | COc1cc2c(cc1OC)C(=O)N1[C@H]3c4cc(C)ccc4OC[C@@H]3[C@H](c3ccccc3)[C@]1(C)C(=O)N2 | 0.131

Row | Compound | AC35 [µM]
55 | O=C(C[C@@H]1C/C=C/CC[C@H](Cc2ccc(F)cc2)C(=O)OC[C@@H](Cc2ccccc2)NC1=O)N[C@H](CO)Cc1ccccc1 | 4.64
56 | Cc1nn(-c2ccccc2)c2c1CC(=O)Nc1ccccc1-2 | 3.16
57 | c1ccc(-c2cc(-c3nnc4n3N=C(c3ccc5ccccc5c3)CS4)[nH]n2)cc1 | 0.205
58 | Cc1cc(C)cc(-n2c3ccc(NC(=O)Cc4cccc5ccccc45)cc3c(=O)n2C)c1 | 5.01
59 | CCOC(=O)c1[nH]c2c(c1-c1ccccc1)C(=O)CC(c1ccccc1)C2 (stereo not given) | 2.69
60 | COc1ccc(-n2c(=S)[nH]c3cc(C(=O)Nc4ccc(C)c(F)c4)ccc3c2=O)c(OC)c1 | 0.245
61 | COc1cc(F)ccc1-c1csc(C(NC(C)=O)c2cccc(F)c2)n1 (stereo not given) | 0.0931
62 | COc1ccc(NC(=O)C2(C)Cc3c(-c4cccc(C(N)=O)c4)ccnc3O2)cc1 (stereo not given) | 3.62
63 | Cc1cc(NS(=O)(=O)c2ccc(NC(=O)COc3c(C)cc(Br)cc3C)cc2)no1 | 1.66
64 | CCN1C(=O)c2cccc3c(S(=O)(=O)Nc4ccccc4OC)ccc1c23 | 0.896
65 | O=C(Nc1cccc(NC(=O)c2cccs2)c1)c1ccc([N+](=O)[O-])o1 | 1.05
66 | C(=C\c1nccc2c1[nH]c1ccccc12)/c1ccccc1 | 0.00701
67 | CCOC(=O)c1c(C)c(C(=O)Nc2cc(F)ccc2F)c(C)n1C | 3.02
68 | CCCCCCn1c(=O)n2n(c1=O)[C@@H]1CN(S(=O)(=O)c3ccc(C)cc3)C[C@]1(O)[C@@H](OC(=O)NCc1ccccc1)C2 | 0.717
69 | c1ccc(Cc2nnc(Sc3ccccc3)c3ccccc23)cc1 | 3.83
70 | COc1ccc2c(c1)OC[C@H]1[C@H]2N2C(=O)c3cc(OC)ccc3NC(=O)[C@@]2(C)[C@H]1c1ccccc1 | 1.08
71 | Cc1ccc(-c2nn3c(C)nnc3c3ccccc23)cc1S(=O)(=O)N(C)CCO | 0.599
72 | COc1ccc(OC)c(-c2cc(-c3cccnc3)nc(N)c2C#N)c1 | 0.227
73 | Cc1ccc(NCCN(C)C)c2c(=O)c3cc(O)ccc3sc12 | 5.71
74 | COc1cccc(C(N)c2nc(-c3csc4ccccc34)cs2)c1 (stereo not given) | 4.88
75 | CCOc1cc(C(=O)Nc2ccc(N3CCOCC3)cc2)cc(Br)c1OC | 3.66
76 | N#Cc1c(-c2ccc(F)cc2)c(-c2ccc(F)cc2)nn(CCO)c1=O | 0.997
77 | Cc1ccc2nc(Cl)c(/C=C/C(=O)c3ccco3)cc2c1 | 1.53
78 | Oc1ccc(Nc2nc(N3CCCC3)c3ccccc3n2)cc1 | 0.15
79 | COc1ccc2c(c1)[C@H]1[C@H](CO2)[C@H](c2ccccc2)[C@]2(C)C(=O)Nc3cc(OC)c(OC)cc3C(=O)N12 | 0.0202
80 | Cc1ccc(S/C=C\C(=O)c2ccccc2)cc1 | 0.135
81 | N=c1c(S(=O)(=O)c2ccc(Cl)cc2)cc2c(=O)n3ccccc3nc2n1CCc1ccccc1 | 0.564

Row | Compound | AC35 [µM]
82 | CC(=O)N1CCc2c(sc(NC(=O)c3ccc4c(c3)OCCO4)c2C#N)C1 | 1.52
83 | Cc1cccc(N2CCN(C(=O)c3ccc(Cl)c(S(=O)(=O)NCc4ccco4)c3)CC2)c1C | 0.202
84 | COc1cc(/C=C(/C(=O)c2cccs2)c2nc3ccccc3[nH]2)cc(OC)c1O | 0.0195
85 | COc1ccc(-c2cc(C(=O)NCC(c3ccccc3)N(C)C)c3ccccc3n2)cc1OC (stereo not given) | 1.1
86 | Cc1ccc(C)n1-c1ccc(C(=O)/C=C/N(C)C)cc1 | 1.05
87 | Cc1nnc2c3ccccc3c(-c3cccs3)nn12 | 0.312
88 | COc1cccc(C2=CC(c3cccc(OC)c3OC)n3nnnc3N2)c1 (stereo not given) | 0.765
89 | COc1ccc(Nc2nc3cc(-c4sccc4C)sc3c(=O)n2C)cc1OC | 0.104
90 | O=c1[nH]c(=O)n([C@H]2C[C@H](O)[C@@H](CO)O2)cc1I | 4.15
91 | O=C(O)c1ccc(N/N=C/c2ccc(-c3ccc(Cl)cc3Cl)o2)cc1 | 1.47
92 | Nc1c2ccccc2nc2ccccc12 | 4.9
93 | Cc1ccc(C=Nc2ccccc2C(N)=O)cc1 | 2.75
94 | COc1ccc(C2=NOC(C(=O)NCc3ccco3)C2)cc1 (stereo not given) | 0.784
95 | CSc1cccc(NC(=O)CCCOc2cc(=O)n(C)c3ccccc23)c1 | 4.53
96 | Cc1ccc(C)c(NC(=S)NC(NC(=O)Cc2cccc3ccccc23)C(Cl)(Cl)Cl)c1 (stereo not given) | 3.55
97 | COc1cc(-c2nc(-c3ccccc3)c(-c3cccs3)[nH]2)cc(OC)c1OC | 7.05
98 | O=C(c1cccs1)N1CCC(c2nc3c(nnn3Cc3cccc(Cl)c3)c(=O)[nH]2)CC1 | 0.174
99 | COc1cc(-c2cc3nc(NCCc4ccncc4)ccn3n2)cc(OC)c1OC | 0.806
100 | CC1CN(c2nc(-c3ccccc3)nnc2-c2ccccc2)CC(C)O1 (stereo not given) | 1.39
101 | CCOC(=O)C1CCN(c2c(N3CCN(Cc4ccccc4)CC3)c(=O)c2=O)CC1 | 1.22
102 | COCCCNC(=O)c1sc2ncn(CC(=O)Nc3ccc(C)c(Cl)c3)c(=O)c2c1C | 2.51
103 | COc1ccc(/C=C2\SC(=O)N(CCNC(=O)C3=COCCO3)C2=O)cc1 | 0.854
104 | COc1ccccc1NS(=O)(=O)c1ccc(C(=O)Nc2ncccc2O)cc1 | 8.86
105 | Cc1cc(=O)oc2cc(OCC(=O)N3c4ccccc4CC3C)ccc12 (stereo not given) | 1.37
